The numbers were not newly measured in patent publication US20140248345A1 (Merck Sharp & Dohme Corp., priority 2011, published 2014), which cites them from elsewhere.

SMILES strings stand for the structures.

In this data set the test system is human Type 2 diabetics. To be noted: oral administration.

Regarding `N#C[C@@H]1CCCN1C(=O)CNC12CC3CC(CC(O)(C3)C1)C2` [vildagliptin, (S)-1-[(3-hydroxy-1-adamantyl)amino]acetyl-2-cyano-pyrrolidine], the HbA1c levels result was “significantly reduced”; the “fasting glucose and postprandial glucose excursion” value is “reduce fasting glucose and postprandial glucose excursion”.

Regarding `N[C@@H](CC(=O)N1CCn2c(nnc2C(F)(F)F)C1)Cc1cc(F)c(F)cc1F` [sitagliptin, (2R)-4-oxo-4-[3-(trifluoromethyl)-5,6-dihydro[1,2,4]triazolo[4,3-a]pyrazin-7(8H)-yl]-1-(2,4,5-trifluorophenyl)butan-2-amine], the HbA1c levels result is “significantly reduced”; the “fasting glucose and postprandial glucose excursion” value is “reduce fasting glucose and postprandial glucose excursion”.
